Patent US20250009743A1, “METHODS OF TREATING CANCERS USING STING AGONISTS” (Dana-Farber Cancer Institute, Inc., priority 2021, published 2025)

Columns and labels:
[1] = system: TAMs co-cultured with CD8^+ T cells; test: Co-culture of TAMs with CD8^+ T cells; assay type: cell-based, mouse; details: TAMs pre-treated with MSA-2 33 μM, washed off; FIG. 34A
Procedure: Tumor associated macrophages (TAMs) were isolated from ETP tumors using a mouse CD11b^+ myeloid cell isolation kit (StemCell, #18970) and seeded in 48-well plate at the density of 1×10^5 cells/well, cultured in DMEM growth medium (DMEM+10% FBS+100 μg/mL penicillin-streptomycin) supplemented with 10 ng/ml mouse M-CSF (BioLegend, #576404) and allowed to adhere overnight. TAMs were then treated with or without MSA-2 at the concentration of 33 μM in the median mentioned above for 2 days. MSA-2 was washed off before coculturing TAM with CD8^+ T cells. Mouse CD8^+ T cells were isolated from spleens of FVB/NJ mice using a mouse CD8+ T cell isolation kit (StemCell, #19853) and seeded in the same 48-well plate at the density of 1×10^5 cells/well, cultured alone or cocultured with TAMs in RPMI 1640 supplemented with 10% FBS, 10 ng/ml mouse M-CSF (BioLegend, #576404), 0.055 mM 2-mercaptoethanol, 2 ng/ml IL-2 (Peprotech), 2.5 ng/ml IL-7 (Peprotech) and 50 ng/ml IL-15 (Peprotech) for 2 days. After that, T cells were collected for flow cytometry analysis.

PE tumors = test: PE (exon19del/T790M EGFR, Trp53 loss) tumor growth in FVB mice; assay type: in vivo, mouse; details: start at about 400 mm^3; osimertinib 10 mg/kg daily by gavage; MSA-2 20 mg/kg i.p. every three days; FIG. 30A
BP tumor cells = test: Pro-inflammatory cytokine expression in BP tumor cells (RT-qPCR, IFNβ ELISA); assay type: cell-based, mouse; details: olaparib two days
Procedure: Total RNA was extracted using RNeasy® Plus Mini Kit (QIAGEN, #74134). An iScript Reverse Transcription Supermix (Bio-Rad, #1708841) was used for the first-strand cDNA synthesis with 1 μg total RNA. Real-time PCR was performed using SYBR™ Select Master Mix (Thermo Fisher, #4472908) with gene-specific primers (mouse/16, forward 5′-[…]-3′, reverse 5′-[…]-3′; mouse//1b, forward 5′-[…]-3′, reverse 5′-[…]-3′; mouse Cxcl1, forward 5′-[…]-3′, reverse 5′-[…]-3′; mouse Ifnb, forward 5′-[…]-3′, reverse 5′-[…]-3′; mouse Ccl5, forward 5′-[…]-3′, reverse 5′-[…]-3′; mouse Cxcl10, forward 5′-[…]-3′, reverse 5′-[…]-3′; mouse Actb, forward 5′-[…]-3′, reverse 5′-[…]-3′; human IL6, forward 5′-[…]-3′, reverse 5′-[…]-3′; human IL1B, forward 5′-[…]-3′, reverse 5′-[…]-3′; human CXCL1, forward 5′-[…]-3′, reverse 5′-[…]-3′; human GAPDH, forward 5′-[…]-3′, reverse 5′-[…]-3′). Relative mRNA levels were calculated using the […]. Mouse Actb and human GAPDH were used as endogenous controls for mouse and human samples, respectively.
Tumor cells were treated with olaparib or DMSO vehicle control for two days. To assess IFNβ production by tumor cells, cell culture supernatants were harvested and subjected to centrifugation at 1,500×g for 10 min at 4° C. to remove floating cells and debris. IFNβ was then detected via mouse IFNβ ELISA Kit (Thermo Fisher, #424001) according to manufacturer's instructions.

PBM tumor cells = test: Cytokine array of medium of PBM cells; assay type: cell-based, mouse; details: olaparib-treated PBM cells; FIG. 19F
Procedure: The PBM tumor cells were cultured in 6-well plate for 24 hrs and treated with olaparib or vehicle control. Drug was removed after 24 hrs' treatment, and cells were cultured in fresh medium for another 48 hrs. Cell culture supernatants were obtained by centrifugation at 1,500 g for 5 min at 4° C. to remove all the debris and cells then subjected to Cytokine array analysis (ARY028, R&D system) according to manufactories introduction. Briefly, the cell culture supernatants were mixed with a cocktail of biotinylated detection antibodies, and then incubated with the Mouse Cytokine Array. The array was then incubated with streptavidin-horseradish peroxidase followed by chemiluminescent detection. Array images were analyzed using the Image J software.

Structure (SMILES)	TAM-mediated suppression of CD8^+ T cells (cytokine production) [1]	PE tumor growth (PE tumors)	IFNB, Ccl5 and Cxcl10 in BP-sgSTING cells (BP tumor cells; BP-sgSTING cells, FIG. 11D-F)	pro-inflammatory cytokines (Ifnb, Ccl5 and Cxcl10) in BP tumor cells (BP tumor cells; control medium or naive BMDM-CM, FIG. 6E)	STAT3-regulated chemokines (CCL2, CX3CL1, CCL20 and CXCL1) in CM (PBM tumor cells)
COc1cc2cc(C(=O)CCC(=O)O)sc2cc1OC [MSA-2]	reversed TAM-mediated suppression of CD8^+ T cells	only modest therapeutic effects	–	–	–
O=C(c1cc(Cc2n[nH]c(=O)c3ccccc23)ccc1F)N1CCN(C(=O)C2CC2)CC1 [olaparib]	–	–	failed to up-regulate	marked up-regulation	significantly increased
